Literature values in publication PMC3388044, “Probing of Exosites Leads to Novel Inhibitor Scaffolds of HCV NS3/4A Proteinase” (PLoS ONE, 2012).
Read-outs that look alike come from different tables or passages of the source.

Legend:
[1] = tested on: HCV replicon (WT NS3/4A); settings: HCV replicon with luciferase readout; cited from earlier work
[2] = tested on: HCV replicon (NS3/4A V36M); settings: mutant HCV replicon with luciferase readout; cited from earlier work
[3] = tested on: HCV replicon (NS3/4A R155K); settings: mutant HCV replicon with luciferase readout; cited from earlier work
[4] = tested on: HCV replicon (NS3/4A A156T); settings: cited from earlier work
[5] = tested on: HCV replicon (NS3/4A D168A); settings: cited from earlier work
[6] = tested on: NS3/4A (WT); settings: purified recombinant WT NS3/4A in vitro; read-out: WT IC50 (purified enzyme); cited from earlier work
[7] = tested on: NS3/4A V36M; settings: cited from earlier work
[8] = tested on: NS3/4A R155K; settings: cited from earlier work
[9] = tested on: NS3/4A D168A; settings: cited from earlier work
[10] = molecular target: NS3/4A; parameters: method as in PMID 19505593; settings: cited from earlier work
[11] = fold change vs WT, mutant HCV replicon
[12] = mutant HCV replicon with luciferase readout
[13] = fold change vs WT, purified recombinant enzyme

## CCC[C@H](NC(=O)[C@@H]1[C@H]2CCC[C@H]2CN1C(=O)[C@@H](NC(=O)[C@@H](NC(=O)c1cnccn1)C1CCCCC1)C(C)(C)C)C(=O)C(=O)NC1CC1 [Telaprevir, telaprevir]
[1]
  IC50: 150 nM
[2]
  IC50: 886 nM
[3]
  IC50: 1470 nM
[4]; [11]
  A156T FC (replicon): 105
[4]; [12]
  IC50: 20300 nM
[5]; [11]
  D168A FC (replicon): 0.4
[5]; [12]
  IC50: 46 nM
[6]
  IC50: 24 nM
[7]; [13]
  V36M FC (purified enzyme): 11.3
[7]; purified recombinant mutant NS3/4A in vitro, read-out: V36M IC50 (purified enzyme)
  IC50: 270 nM
[8]; [13]
  R155K FC (purified enzyme): 4.8
[8]; purified recombinant mutant NS3/4A in vitro, read-out: R155K IC50 (purified enzyme)
  IC50: 115 nM
[9]; [13]
  D168A FC (purified enzyme): 0.4
[9]; purified recombinant mutant NS3/4A in vitro, read-out: D168A IC50 (purified enzyme)
  IC50: 9 nM
[10]; improved KI after fast covalent bond formation, read-out: KI after covalent bond formation
  Ki: ~40 nM
[10]; initial non-covalent binding step, read-out: KI, non-covalent binding step
  Ki: ~6000 nM
